Test results reported in patent US20260378560A1, “APPROACHES TO DESIGNING AND PERFORMING COMPRESSED BIOLOGICAL EXPERIMENTS AND SYSTEMS FOR IMPLEMENTING THE SAME” (EXVIVO LABS INC., priority 2023, published 2026).

Legend:
REH [1] = test: Cell viability (CellTiter Glo), library of cancer drugs, individual or sample compression with randomized (alphabetical) pools, REH; type: cell-based; conditions: REH; for DRS: None (measured individually); for DRS from deconvolution: Samples, 7 Pick 3 randomized (alphabetical) sample pools
Summary of the method: (§1)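 Cells cultured with each drug individually at 1 nM–10 μM; viability by ATP luminescence (CellTiter Glo) to build dose-response curves and DRS. Samples read singly or pooled alphabetically (each drug in 3 of 7 pools), with pooled DRS recovered by additivity-based SUM deconvolution.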

MOLT-4 [2] = test: Cell viability (CellTiter Glo), library of cancer drugs, individual or sample compression with randomized (alphabetical) pools, MOLT-4; type: cell-based; conditions: for DRS: MOLT-4, None (measured individually); for DRS from deconvolution: MOLT-4, Samples, 7 Pick 3 randomized (alphabetical) sample pools
Summary of the method: as §1

REH [3] = test: Cell viability (CellTiter Glo), compressed perturbation pools with informed pool design, MAX-based deconvolution, REH; conditions: REH; for DRS: None (measured individually), informed pool design table; for DRS from MAX-based deconvolution: Samples, 7 Pick 3 informed perturbation pools; for DRS, REH, MAX: compressed perturbation pools, informed pool design, MAX-based deconvolution;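 on DRS from MAX-based deconvolution: higher DRS means a larger drug effect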
Summary of the method: (§2)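 Drugs dosed from 1 nM to 10 μM with ATP-luminescence viability, giving a DRS per drug. Pools designed by drug class, with same-class drugs in separate cohorts and clinically toxic pairs kept apart.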

MOLT-4 [4] = test: Cell viability (CellTiter Glo), compressed perturbation pools with informed pool design, MAX-based deconvolution, MOLT-4; conditions: for DRS: MOLT-4, None (measured individually), informed pool design table; for DRS from MAX-based deconvolution: MOLT-4, Samples, 7 Pick 3 informed perturbation pools; for DRS, MOLT-4, MAX: compressed perturbation pools, informed pool design, MAX-based deconvolution;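 on DRS from MAX-based deconvolution: higher DRS means a larger drug effect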
Summary of the method: as §2

REH [5] = test: Cell viability (CellTiter Glo), compressed perturbation pools with informed pool design, SUM-based deconvolution, REH; parameters: scale not given here
Method: (§3) Total cell viability was measured for each sample using an ATP-based luminescence assay (i.e., CellTiter Glo). Each cancer drug was then screened at multiple concentrations ranging from one nM to ten μM in order to generate a dose-response curve and calculate a DRS for each cancer cell line.
(§4) Each cancer drug was cultured with target cells individually. At the end of the screen, samples were either analyzed individually or compressed into pools for analysis. The library was compressed alphabetically into ten cohorts, each of which contained seven cancer drugs present in three out of the seven pools, as shown in Table VII. Said another way, the screening platform 210 generated a “7 pick 3” compressed library by assigning the cancer drugs among different pools. […] The library was also compressed into ten cohorts with pools designed based on information known about each cancer drug, as shown in Table VIII. After cell viability measurement and DRS calculation, the DRS of each cancer drug in the samples generated based on the pools were deconvoluted and compared to the DRS for each cancer drug measured individually.
(§5) In parallel to the exemplary sample compression screen covered in Table VII, perturbations were compressed into pools and then screened. The pools were designed using drug class as a feature with two compression rules (or simply “rules”). The first rule required that drugs from the same class be separated into different cohorts (i.e., mutually exclusive groups of pools). The second rule separated PI3K pathway inhibitors from MAPK pathway inhibitors, as inhibiting these pathways in parallel is known to be synergistic but has not been clinically effective due to dose-limiting toxicities. A benefit of compressing perturbations is the ability to measure additive, antagonistic, and synergistic effects between drugs in the same pool. However, these effects can negatively impact deconvolution of individual drug effects. Therefore, combinations of drugs for which evidence of clinical toxicity exists can be assigned to different pools in accordance with an informed pooling operation. As new preclinical or clinical evidence of toxic combinations becomes available, the rules implemented by the screening platform 210—and more specifically, its algorithm for compressing members of a library—can be updated accordingly.
(§6) In SUM-based deconvolution, an assumption of additivity is used to quantify the individual effects of each perturbation on each target. Additivity implies that each perturbation effect on each target is positively contributing to the overall effect measured for that pool. This is an accurate assumption for certain experiments, such as when targets or samples are compressed. When targets are pooled—or when samples containing different targets are pooled—the effect of each perturbation on each individual target is diluted. In other words, each perturbation has an isolated effect on a target in culture, and the sum total of the isolated effects are measured when pooled. Therefore, SUM-based deconvolution breaks down the sum total measured for a pool and assigns estimated fractional effects to each compressed perturbation or target in the pool. The screening platform 210 used SUM-based deconvolution for all target and sample compression experiments described above.
(§7) As mentioned above, SUM-based deconvolution uses the overlapping pool design to identify relative relationships and ranges for the individual effects of each perturbation. When the overlapping pool design is not sufficient to solve for the polynomials representing perturbation effects, an anchor perturbation can be identified by the screening platform 210 based on rank order and assigned an effect size of zero. The anchor perturbation may be the lowest ranked perturbation in the rank order. This then enables the screening platform 210 to solve for the polynomials for the remaining perturbations.

MOLT-4 [6] = test: Cell viability (CellTiter Glo), compressed perturbation pools with informed pool design, SUM-based deconvolution, MOLT-4; parameters: scale not given here
Method: as §3, §4, §5, §6, §7

Row | SMILES | DRS (REH [1]) | DRS from deconvolution (REH [1]) | DRS (MOLT-4 [2]) | DRS from deconvolution (MOLT-4 [2]) | DRS (REH [3]) | DRS from MAX-based deconvolution (REH [3]) | DRS, REH, MAX (REH [3]) | DRS (MOLT-4 [4]) | DRS from MAX-based deconvolution (MOLT-4 [4]) | DRS, MOLT-4, MAX (MOLT-4 [4]) | DRS, REH, SUM (REH [5]) | DRS, MOLT-4, SUM (MOLT-4 [6]) | top hit of cohort (deconvoluted effect size) (REH [3]; informed perturbation pools) | top hit of cohort (deconvoluted effect size) (MOLT-4 [4]; MOLT, informed perturbation pools)
1 | CCN1CCN(Cc2ccc(Nc3ncc(F)c(-c4cc(F)c5nc(C)n(C(C)C)c5c4)n3)nc2)CC1 [Abemaciclib] | 2.40 | 2.57 | 0.50 | 0.55 | 13.34 | 15.14 | 0.00 | 15.70 | 17.03 | 0.00 | 2.69 | 1.08 | – | –
2 | Cc1nc(NC(=O)N2CCC[C@H]2C(N)=O)sc1-c1ccnc(C(C)(C)C(F)(F)F)c1 [Alpelisib] | 0.79 | 0.75 | 1.79 | 1.94 | 0.21 | 0.35 | 3.57 | 0.01 | 0.00 | 0.00 | 1.12 | 0.00 | – | –
3 | CNC(=O)c1ccc(N2C(=S)N(c3cnc(C#N)c(C(F)(F)F)c3)C(=O)C23CCC3)cc1F [Apalutamide] | 0.38 | 0.35 | 0.38 | 0.33 | 0.00 | 0.00 | 0.73 | 0.00 | 0.00 | 4.94 | 0.73 | 1.88 | – | –
4 | O=C(/C=C/c1cccc(S(=O)(=O)Nc2ccccc2)c1)NO [Belinostat] | 16.20 | 15.81 | 18.70 | 12.21 | 12.12 | 14.23 | 18.94 | 13.42 | 15.55 | 21.41 | 18.09 | 14.77 | – | –
5 | CC(C)C[C@H](NC(=O)[C@H](Cc1ccccc1)NC(=O)c1cnccn1)B(O)O [Bortezomib] | 27.70 | 28.16 | 25.00 | 25.41 | 2.40 | 2.90 | 31.61 | 2.50 | 2.76 | 28.24 | 22.86 | 23.95 | top hit | top hit
6 | C[C@@H](Oc1cc(-c2cnn(C3CCNCC3)c2)cnc1N)c1c(Cl)ccc(F)c1Cl [Crizotinib] | 0.23 | 015 | 0.23 | 0.28 | 0.27 | 0.00 | 0.00 | 0.27 | 0.27 | 0.00 | 0.00 | 3.06 | – | –
7 | COc1cc2ncnc(Nc3ccc(F)c(Cl)c3)c2cc1NC(=O)/C=C/CN1CCCCC1 [Dacomitinib] | 3.10 | 3.15 | 2.60 | 2.53 | 0.00 | 0.00 | 0.00 | 0.00 | 0.00 | 0.00 | 1.33 | 0.99 | – | –
8 | COc1cc(OC)cc(N(CCNC(C)C)c2ccc3ncc(-c4cnn(C)c4)nc3c2)c1 [Erdafitinib] | 4.37 | 4.03 | 3.37 | 3.41 | 0.38 | 0.73 | 0.00 | 0.38 | 4.94 | 3.88 | 0.00 | 1.38 | – | –
9 | C#Cc1cccc(Nc2ncnc3cc(OCCOC)c(OCCOC)cc23)c1 [Erlotinib] | 1.84 | 1.59 | 1.04 | 0.96 | 5.88 | 7.06 | 0.00 | 0.68 | 5.39 | 0.00 | 1.67 | 1.55 | – | –
10 | C[C@@H]1CCN(C(=O)CC#N)C[C@@H]1N(C)c1ncnc2[nH]ccc12 [Tofacitinib] | 0.20 | 0.00 | 0.00 | 0.00 | 3.15 | 4.06 | – | 2.96 | 0.00 | – | – | – | – | –
11 | CC(=O)Nc1cccc(-n2c(=O)n(C3CC3)c(=O)c3c(Nc4ccc(I)cc4F)n(C)c(=O)c(C)c32)c1 [Trametinib] | 0.00 | 0.00 | 0.00 | 0.00 | 21.81 | 23.72 | – | 24.71 | 24.91 | – | – | – | – | –
12 | Cc1cc(Nc2ncnc3ccc(NC4=NC(C)(C)CO4)cc23)ccc1Oc1ccn2ncnc2c1 [Tucatinib] | 0.30 | 0.21 | 0.00 | 0.00 | 0.91 | 0.00 | – | 0.80 | 0.00 | – | – | – | – | –
13 | Nc1cc(F)ccc1NC(=O)c1ccc(CNC(=O)/C=C/c2cccnc2)cc1 [Tucidinostat] | 10.87 | 11.23 | 6.77 | 7.95 | 2.40 | 0.00 | – | 0.50 | 0.00 | – | – | – | – | –
14 | COc1cc2c(Nc3ccc(Br)cc3F)ncnc2cc1OCC1CCN(C)CC1 [Vandetanib] | 3.01 | 2.79 | 3.01 | 3.12 | 7.39 | 9.02 | – | 2.19 | 2.51 | – | – | – | – | –
15 | CS(=O)(=O)c1ccc(C(=O)Nc2ccc(Cl)c(-c3ccccn3)c2)c(Cl)c1 [Vismodegib] | 0.00 | 0.00 | 0.70 | 0.56 | 2.58 | 3.06 | – | 4.08 | 4.35 | – | – | – | – | –
16 | O=C(CCCCCCC(=O)Nc1ccccc1)NO [Vorinostat] | 12.12 | 12.11 | 13.42 | 13.67 | 2.01 | 0.00 | – | 1.84 | 0.00 | – | – | – | – | –
